Target: T1, PvdL (Pseudomonas putida, UniProt Q88F56)
T1 construct: monomer
Experiment: LC/HRMS of product N-myristoyl-L-glutamic acid after base hydrolysis
Assay type: biochemical
Settings: 1 uM PvdL, 200 uM myristic acid, 1 mM L-Glu, 5 mM ATP, 10 mM MgCl2, pH 7.6, 25 °C; first two modules; product covalent on PvdL

T1 sequence (Q88F56 1-4317): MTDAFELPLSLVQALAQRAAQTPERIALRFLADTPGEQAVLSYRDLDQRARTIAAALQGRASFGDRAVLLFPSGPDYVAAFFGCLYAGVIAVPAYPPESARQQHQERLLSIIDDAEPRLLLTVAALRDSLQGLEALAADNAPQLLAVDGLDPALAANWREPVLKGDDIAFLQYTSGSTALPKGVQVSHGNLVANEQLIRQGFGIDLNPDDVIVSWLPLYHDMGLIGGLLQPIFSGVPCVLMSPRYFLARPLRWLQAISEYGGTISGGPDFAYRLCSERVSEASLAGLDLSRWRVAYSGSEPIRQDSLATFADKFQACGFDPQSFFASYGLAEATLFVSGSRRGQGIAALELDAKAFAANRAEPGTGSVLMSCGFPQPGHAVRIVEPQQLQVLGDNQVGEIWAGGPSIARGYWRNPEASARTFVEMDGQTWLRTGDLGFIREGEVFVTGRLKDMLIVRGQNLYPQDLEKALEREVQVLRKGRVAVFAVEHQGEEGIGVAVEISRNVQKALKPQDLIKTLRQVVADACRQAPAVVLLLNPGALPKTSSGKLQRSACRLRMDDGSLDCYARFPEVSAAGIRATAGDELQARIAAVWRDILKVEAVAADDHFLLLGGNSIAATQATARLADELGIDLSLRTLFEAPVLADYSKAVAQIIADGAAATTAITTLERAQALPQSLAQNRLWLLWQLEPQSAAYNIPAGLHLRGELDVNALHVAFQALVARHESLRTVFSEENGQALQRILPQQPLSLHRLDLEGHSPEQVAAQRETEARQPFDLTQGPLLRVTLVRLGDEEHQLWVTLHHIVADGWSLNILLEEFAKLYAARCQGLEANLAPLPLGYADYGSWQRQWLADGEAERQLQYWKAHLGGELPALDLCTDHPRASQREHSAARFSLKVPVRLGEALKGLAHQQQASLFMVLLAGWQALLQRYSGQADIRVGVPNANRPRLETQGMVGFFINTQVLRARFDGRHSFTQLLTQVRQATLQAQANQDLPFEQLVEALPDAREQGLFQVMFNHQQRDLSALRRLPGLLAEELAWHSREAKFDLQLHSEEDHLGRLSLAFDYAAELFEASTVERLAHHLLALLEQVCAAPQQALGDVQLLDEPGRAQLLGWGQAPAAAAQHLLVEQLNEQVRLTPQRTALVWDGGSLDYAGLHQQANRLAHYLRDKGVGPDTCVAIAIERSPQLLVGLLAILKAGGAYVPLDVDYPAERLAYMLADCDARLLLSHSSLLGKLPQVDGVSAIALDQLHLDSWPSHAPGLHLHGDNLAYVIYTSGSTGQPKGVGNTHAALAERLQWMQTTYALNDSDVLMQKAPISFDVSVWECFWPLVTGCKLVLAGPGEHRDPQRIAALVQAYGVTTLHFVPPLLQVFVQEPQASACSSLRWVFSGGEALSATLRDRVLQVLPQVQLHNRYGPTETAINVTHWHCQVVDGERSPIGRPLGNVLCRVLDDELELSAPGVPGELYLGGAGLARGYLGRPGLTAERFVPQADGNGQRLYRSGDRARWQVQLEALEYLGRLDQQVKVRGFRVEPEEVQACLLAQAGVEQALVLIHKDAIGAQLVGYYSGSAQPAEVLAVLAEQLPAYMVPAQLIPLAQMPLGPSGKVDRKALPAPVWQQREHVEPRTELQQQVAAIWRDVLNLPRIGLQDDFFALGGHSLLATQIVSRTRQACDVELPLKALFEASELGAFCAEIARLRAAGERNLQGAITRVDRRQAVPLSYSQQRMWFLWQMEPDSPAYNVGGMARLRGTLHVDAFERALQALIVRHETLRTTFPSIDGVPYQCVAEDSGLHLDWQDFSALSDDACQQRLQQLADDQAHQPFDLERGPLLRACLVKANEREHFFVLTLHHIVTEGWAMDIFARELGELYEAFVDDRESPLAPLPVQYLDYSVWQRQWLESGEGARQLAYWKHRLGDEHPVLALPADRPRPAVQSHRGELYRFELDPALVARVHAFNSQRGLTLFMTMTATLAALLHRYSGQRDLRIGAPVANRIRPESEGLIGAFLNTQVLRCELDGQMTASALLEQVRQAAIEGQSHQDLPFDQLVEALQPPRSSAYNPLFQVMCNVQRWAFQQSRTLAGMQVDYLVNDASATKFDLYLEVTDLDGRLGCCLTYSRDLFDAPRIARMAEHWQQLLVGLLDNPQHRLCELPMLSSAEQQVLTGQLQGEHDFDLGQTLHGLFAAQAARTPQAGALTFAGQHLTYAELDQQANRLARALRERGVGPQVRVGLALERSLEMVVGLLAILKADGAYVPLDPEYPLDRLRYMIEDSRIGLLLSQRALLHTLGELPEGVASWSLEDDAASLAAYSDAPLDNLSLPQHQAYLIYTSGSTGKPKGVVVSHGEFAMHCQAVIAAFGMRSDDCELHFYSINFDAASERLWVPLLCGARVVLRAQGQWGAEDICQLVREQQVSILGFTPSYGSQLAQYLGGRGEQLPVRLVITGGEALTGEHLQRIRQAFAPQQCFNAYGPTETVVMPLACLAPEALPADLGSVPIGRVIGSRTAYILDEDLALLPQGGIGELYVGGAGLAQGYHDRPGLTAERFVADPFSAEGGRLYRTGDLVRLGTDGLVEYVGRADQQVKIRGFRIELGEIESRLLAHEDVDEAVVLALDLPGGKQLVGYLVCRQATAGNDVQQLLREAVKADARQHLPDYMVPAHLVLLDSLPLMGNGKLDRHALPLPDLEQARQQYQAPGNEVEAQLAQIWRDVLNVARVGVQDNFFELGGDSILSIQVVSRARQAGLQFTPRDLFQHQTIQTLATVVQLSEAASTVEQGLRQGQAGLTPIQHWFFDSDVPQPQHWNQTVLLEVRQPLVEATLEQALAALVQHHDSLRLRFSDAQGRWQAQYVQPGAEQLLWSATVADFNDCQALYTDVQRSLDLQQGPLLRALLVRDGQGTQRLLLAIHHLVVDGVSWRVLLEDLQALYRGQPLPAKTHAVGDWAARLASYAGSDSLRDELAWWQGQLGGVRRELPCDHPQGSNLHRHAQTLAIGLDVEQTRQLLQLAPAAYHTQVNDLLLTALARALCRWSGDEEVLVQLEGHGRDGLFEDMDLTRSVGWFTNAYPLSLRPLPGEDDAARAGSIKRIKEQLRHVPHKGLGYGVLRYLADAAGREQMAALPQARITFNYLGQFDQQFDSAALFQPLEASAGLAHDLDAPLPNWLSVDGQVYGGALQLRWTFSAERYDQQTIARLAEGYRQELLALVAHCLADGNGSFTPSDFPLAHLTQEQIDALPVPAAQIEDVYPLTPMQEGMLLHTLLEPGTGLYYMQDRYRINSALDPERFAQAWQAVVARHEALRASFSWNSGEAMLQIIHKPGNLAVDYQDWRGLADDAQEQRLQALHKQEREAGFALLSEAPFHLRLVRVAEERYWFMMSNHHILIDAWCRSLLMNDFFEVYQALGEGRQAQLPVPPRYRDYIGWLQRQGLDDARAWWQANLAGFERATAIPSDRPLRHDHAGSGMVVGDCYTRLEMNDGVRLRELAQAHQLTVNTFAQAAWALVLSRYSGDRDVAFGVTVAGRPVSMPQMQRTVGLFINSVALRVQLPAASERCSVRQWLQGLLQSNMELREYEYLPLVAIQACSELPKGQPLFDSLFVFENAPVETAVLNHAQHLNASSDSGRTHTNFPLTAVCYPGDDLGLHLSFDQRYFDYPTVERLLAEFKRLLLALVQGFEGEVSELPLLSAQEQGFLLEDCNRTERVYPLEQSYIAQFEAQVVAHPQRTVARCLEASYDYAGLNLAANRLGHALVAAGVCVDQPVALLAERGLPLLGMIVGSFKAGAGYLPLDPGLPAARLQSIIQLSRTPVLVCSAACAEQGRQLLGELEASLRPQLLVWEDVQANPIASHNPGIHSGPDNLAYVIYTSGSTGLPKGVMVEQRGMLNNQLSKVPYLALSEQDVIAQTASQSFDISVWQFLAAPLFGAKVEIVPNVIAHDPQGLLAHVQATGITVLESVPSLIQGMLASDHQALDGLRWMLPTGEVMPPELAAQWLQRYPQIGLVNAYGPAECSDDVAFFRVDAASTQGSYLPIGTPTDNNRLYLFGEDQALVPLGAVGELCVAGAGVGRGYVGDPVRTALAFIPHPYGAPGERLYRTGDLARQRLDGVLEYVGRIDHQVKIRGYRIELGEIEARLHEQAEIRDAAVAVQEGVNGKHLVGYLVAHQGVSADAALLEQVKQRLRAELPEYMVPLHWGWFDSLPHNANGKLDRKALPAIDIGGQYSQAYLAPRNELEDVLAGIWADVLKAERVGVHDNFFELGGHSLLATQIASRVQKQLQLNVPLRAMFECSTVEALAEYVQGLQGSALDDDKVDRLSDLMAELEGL

Question: `N[C@@H](CCC(=O)O)C(=O)O` [L-Glu] was tested. Which “LC/HRMS of product N-myristoyl-L-glutamic acid after base hydrolysis” value did it give?
Answer: Its value is “ATP-energy-dependent activation and condensation of myristic acid and glutamic acid”.

— article PMC11855355, “In-Situ Purification of Non-Ribosomal Peptide Synthetases Assembly Line for Structural and Biochemical Studies” (International Journal of Molecular Sciences, 2025)
